The values below come from patent US8217029B2, “Oxazolidinone antibiotics” (Actelion Pharmaceuticals Ltd, priority 2007, dated 2012).

Converted amounts (≈) assume the structure as drawn.

For the experiment, the system named is S aureus A798. Put plainly: Minimal inhibitory concentration (MIC), microdilution method in cation-adjusted Mueller-Hinton Broth following NCCLS guidelines. In kind it is cell-based. The settings on record: pH of test medium 7.2-7.3. The procedure: These assays have been performed following the description given in “Methods for dilution Antimicrobial Susceptibility Tests for Bacteria that Grow Aerobically, 4th ed.; Approved standard: NCCLS Document M7-A4; National Committee for Clinical Laboratory Standards Villanova, Pa., USA, 1997”. Minimal inhibitory concentrations (MICs; mg/l) were determined in cation-adjusted Mueller-Hinton Broth by a microdilution method following NCCLS guidelines (National Committee for Clinical Laboratory Standards. Methods for Dilution Antimicrobial Susceptibility). The pH of the test medium was 7.2-7.3. All Example compounds were tested against several Gram positive and Gram negative bacteria.
In general terms: Broth dilution looks for growth in wells or tubes with falling amounts of substance.
Regarding `COc1ccc2nccc(N3CC[C@H](NC[C@@H]4CN(c5ccc6c(c5)NC(=O)CS6)C(=O)O4)C3)c2n1` [Example 70, 6-((R)-5-{[(S)-1-(6-Methoxy-[1,5]naphthyridin-4-yl)-pyrrolidin-3-ylamino]-methyl}-2-oxo-oxazolidin-3-yl)-4H-benzo[1,4]thiazin-3-one], the MIC (commonly the lowest concentration that inhibits growth of the organism) is at most 0.031 µg/mL.
`COc1ccc2nccc(N3CC[C@@H](NC[C@@H]4CN(c5ccc6c(c5)NC(=O)CS6)C(=O)O4)C3)c2n1` [Example 71, 6-((R)-5-{[(R)-1-(6-Methoxy-[1,5]naphthyridin-4-yl)-pyrrolidin-3-ylamino]-methyl}-2-oxo-oxazolidin-3-yl)-4H-benzo[1,4]thiazin-3-one] yielded an MIC of at most 0.031 µg/mL.
On to `COc1ccc2ncc(F)c(N3CC(N(C)C[C@@H]4CN(c5ccc6c(c5)NC(=O)CO6)C(=O)O4)C3)c2n1` [Example 127, 6-[(R)-5-({[1-(3-Fluoro-6-methoxy-[1,5]naphthyridin-4-yl)-azetidin-3-yl]-methyl-amino}-methyl)-2-oxo-oxazolidin-3-yl]-4H-benzo[1,4]oxazin-3-one], for which the MIC is at most 0.031 µg/mL.
Compound `COc1ccc2nccc(N3CC[C@H](NCCC4CN(c5ccc6c(c5)NC(=O)CS6)C(=O)O4)C3)c2n1` (mixture of isomers) [Example 86, 6-((RS)-5-{2-[(S)-1-(6-Methoxy-[1,5]naphthyridin-4-yl)-pyrrolidin-3-ylamino]-ethyl}-2-oxo-oxazolidin-3-yl)-4H-benzo[1,4]thiazin-3-one] returned an MIC of at most 0.031 µg/mL.
For `COc1ccc2nccc(N3C[C@@H](CNC[C@@H]4CN(c5ccc6c(c5)NC(=O)CS6)C(=O)O4)[C@@H](O)C3)c2n1` (mixture of isomers) [Example 83, 6-[(R)-5-({[(3RS)-(4RS)-4-Hydroxy-1-(6-methoxy-[1,5]naphthyridin-4-yl)-pyrrolidin-3-ylmethyl]-amino}-methyl)-2-oxo-oxazolidin-3-yl]-4H-benzo[1,4]thiazin-3-one], 0.25 µg/mL was the least that counted as inhibitory (MIC).
Consider `COc1ccc2nccc(N3CC[C@H](CNC[C@@H]4CN(c5ccc6c(c5)NC(=O)CO6)C(=O)O4)C3)c2n1` [Example 167, 6-[(R)-5-({[(R)-1-(6-Methoxy-[1,5]naphthyridin-4-yl)-pyrrolidin-3-ylmethyl]amino}-methyl)-2-oxo-oxazolidin-3-yl]-4H-benzo[1,4]oxazin-3-one], for which the MIC is at most 0.031 µg/mL.
Turning to `COc1ccc2nccc(N3CCC(NC[C@@H]4CN(c5ccc(C)c(F)c5)C(=O)O4)CC3)c2n1` [Example 121, (R)-3-(3-Fluoro-4-methyl-phenyl)-5-{[1-(6-methoxy-[1,5]naphthyridin-4-yl)-piperidin-4-ylamino]-methyl}-oxazolidin-2-one], the MIC is at most 0.031 µg/mL.
Take `COc1ccc2nccc(N3CCN(C[C@@H]4CN(c5ccc6c(c5)NC(=O)CS6)C(=O)O4)CC3)c2n1` [Example 22, 6-{(R)-5-[4-(6-Methoxy-[1,5]naphthyridin-4-yl)-piperazin-1-ylmethyl]-2-oxo-oxazolidin-3-yl}-4H-benzo[1,4]thiazin-3-one]: the MIC is at most 0.031 µg/mL.
`COc1ccc2nccc(N3CC(NC[C@@H]4CN(c5ccc6c(c5)NC(=O)CS6)C(=O)O4)C3)c2c1` [Example 49, 6-((R)-5-{[1-(6-Methoxy-quinolin-4-yl)-azetidin-3-ylamino]-methyl}-2-oxo-oxazolidin-3-yl)-4H-benzo[1,4]thiazin-3-one] had an MIC of at most 0.031 µg/mL.
For `COc1ccc2nccc(N3CC(CNC[C@@H]4CN(c5ccc(C)c(F)c5)C(=O)O4)C3)c2n1` [Example 154, (R)-3-(3-Fluoro-4-methyl-phenyl)-5-({[1-(6-methoxy-[1,5]naphthyridin-4-yl)-azetidin-3-ylmethyl]-amino}-methyl)-oxazolidin-2-one] the value was 0.063 µg/mL (≈ 0.14 µM).
Regarding `COc1ccc2ncc(F)c(N3CC(NC[C@@H]4CN(c5ccc6c(c5)OCCO6)C(=O)O4)C3)c2n1` [Example 47, (R)-3-(2,3-Dihydro-benzo[1,4]dioxin-6-yl)-5-{[1-(3-fluoro-6-methoxy-[1,5]naphthyridin-4-yl)-azetidin-3-ylamino]-methyl}-oxazolidin-2-one], the MIC was at most 0.031 µg/mL.
`COc1ccc2nccc(N3CCN(C[C@@H]4CN(c5ccc6c(c5)NC(=O)CO6)C(=O)O4)CC3)c2n1` [Example 96, 6-{(R)-5-[4-(6-Methoxy-[1,5]naphthyridin-4-yl)-piperazin-1-ylmethyl]-2-oxo-oxazolidin-3-yl}-4H-benzo[1,4]oxazin-3-one] gave an MIC of at most 0.031 µg/mL.
The compound `COc1ccc2nccc(N3CC[C@H](NC(=O)[C@@H]4CN(c5ccc6c(c5)OCCO6)C(=O)O4)C3)c2n1` [Example 60, (S)-3-(2,3-Dihydro-benzo[1,4]dioxin-6-yl)-2-oxo-oxazolidine-5-carboxylic acid [(S)-1-(6-methoxy-[1,5]naphthyridin-4-yl)-pyrrolidin-3-yl]-amide] registered an MIC of at most 0.031 µg/mL.
Regarding `COc1ccc2nccc(N3CCN(C[C@@H]4CN(c5cccc(C(F)(F)F)c5)C(=O)O4)CC3)c2n1` [Example 16, (R)-5-[4-(6-Methoxy-[1,5]naphthyridin-4-yl)-piperazin-1-ylmethyl]-3-(3-trifluoromethyl-phenyl)-oxazolidin-2-one], 0.25 µg/mL (≈ 0.513 µM) was the least that counted as inhibitory (MIC).
Turning to `O=C1CSc2ccc(N3C[C@@H](CNC4CN(c5ccnc6ccc(F)cc56)C4)OC3=O)cc2N1` [Example 160, 6-((R)-5-{[1-(6-Fluoro-quinolin-4-yl)-azetidin-3-ylamino]-methyl}-2-oxo-oxazolidin-3-yl)-4H-benzo[1,4]thiazin-3-one], the MIC was at most 0.031 µg/mL.
With `COc1ccc2nccc(N3CCN(C[C@@H]4CN(c5ccc(C)c(F)c5)C(=O)O4)CC3)c2n1` [Example 36, (R)-3-(3-Fluoro-4-methyl-phenyl)-5-[4-(6-methoxy-[1,5]naphthyridin-4-yl)-piperazin-1-ylmethyl]-oxazolidin-2-one], the MIC is at most 0.031 µg/mL.
The compound `COc1ccc2nccc(N3CC(C(=O)NC[C@@H]4CN(c5ccc(C)c(F)c5)C(=O)O4)C3)c2n1` [Example 148, 1-(6-Methoxy-[1,5]naphthyridin-4-yl)-azetidine-3-carboxylic acid [(R)-3-(3-fluoro-4-methyl-phenyl)-2-oxo-oxazolidin-5-ylmethyl]-amide] displayed an MIC of 0.5 µg/mL (≈ 1.07 µM).
On to `COc1ccc2nccc(N3C[C@@H](NC[C@@H]4CN(c5ccc6c(c5)NC(=O)CS6)C(=O)O4)[C@H](C(=O)O)C3)c2n1` (relative stereo) [Example 74, (3R*,4S*)-1-(6-Methoxy-[1,5]naphthyridin-4-yl)-4-{[(R)-2-oxo-3-(3-oxo-3,4-dihydro-2H-benzo[1,4]thiazin-6-yl)-oxazolidin-5-ylmethyl]-amino}-pyrrolidine-3-carboxylic acid], for which the MIC was 0.5 µg/mL (≈ 0.908 µM).
For `COc1ccc2nccc(N3CC(CNC[C@H]4CN(c5ccc6c(c5)OCCO6)C(=O)O4)C3)c2n1` [Example 1, (S)-3-(2,3-Dihydro-benzo[1,4]dioxin-6-yl)-5-({[1-(6-methoxy-[1,5]naphthyridin-4-yl)-azetidin-3-ylmethyl]-amino}-methyl)-oxazolidin-2-one] the value was 0.25 µg/mL (≈ 0.524 µM); for `COc1ccc2nccc(N3CCN(C[C@@H]4CN(c5ccc(F)c(Cl)c5)C(=O)O4)CC3)c2n1` [Example 17, (R)-3-(3-Chloro-4-fluoro-phenyl)-5-[4-(6-methoxy-[1,5]naphthyridin-4-yl)-piperazin-1-ylmethyl]-oxazolidin-2-one], at most 0.031 µg/mL.
Then `COc1ccc2nccc(N3CC[C@H](N(C)C[C@@H]4CN(c5ccc6c(c5)OCCO6)C(=O)O4)C3)c2n1` [Example 112, (R)-3-(2,3-Dihydro-benzo[1,4]dioxin-6-yl)-5-({[(S)-1-(6-methoxy-[1,5]naphthyridin-4-yl)-pyrrolidin-3-yl]-methyl-amino}-methyl)-oxazolidin-2-one], with at most 0.031 µg/mL; and `COc1ccc2nccc(N3CC(NC[C@H]4CN(c5ccc6c(c5)NC(=O)CS6)C(=O)O4)C3)c2n1` [Example 57, 6-((S)-5-{[1-(6-Methoxy-[1,5]naphthyridin-4-yl)-azetidin-3-ylamino]-methyl}-2-oxo-oxazolidin-3-yl)-4H-benzo[1,4]thiazin-3-one], with at most 0.031 µg/mL.
For `COc1ccc2ncc(F)c(N3CC(NC[C@@H]4CN(c5ccc6c(c5)NC(=O)CO6)C(=O)O4)C3)c2n1` [Example 45, 6-((R)-5-{[1-(3-Fluoro-6-methoxy-[1,5]naphthyridin-4-yl)-azetidin-3-ylamino]-methyl}-2-oxo-oxazolidin-3-yl)-4H-benzo[1,4]oxazin-3-one] the value was at most 0.031 µg/mL.
`COc1ccc2nccc(N3C[C@@H](O)[C@H](NC[C@@H]4CN(c5ccc6c(c5)OCCO6)C(=O)O4)C3)c2n1` (relative stereo) [Example 77, (R)-3-(2,3-Dihydro-benzo[1,4]dioxin-6-yl)-5-{[(3R*,4R*)-4-hydroxy-1-(6-methoxy-[1,5]naphthyridin-4-yl)-pyrrolidin-3-ylamino]-methyl}-oxazolidin-2-one] yielded an MIC of 0.25 µg/mL (≈ 0.507 µM).
Turning to `COc1ccc2ncc(F)c(C3(O)CCN(C[C@@H]4CN(c5ccc6c(c5)NC(=O)CS6)C(=O)O4)CC3)c2n1` [Example 126, 6-{(R)-5-[4-(3-Fluoro-6-methoxy-[1,5]naphthyridin-4-yl)-4-hydroxy-piperidin-1-ylmethyl]-2-oxo-oxazolidin-3-yl}-4H-benzo[1,4]thiazin-3-one], the MIC was at most 0.031 µg/mL.
The compound `COc1ccc(N2C[C@@H](CNC3CN(c4ccnc5ccc(OC)nc45)C3)OC2=O)cc1` [Example 174, (R)-5-{[1-(6-Methoxy-[1,5]naphthyridin-4-yl)-azetidin-3-ylamino]-methyl}-3-(4-methoxy-phenyl)-oxazolidin-2-one] had an MIC of at most 0.031 µg/mL.
For `COc1ccc2nccc(N3CCN(C[C@@H]4CN(c5ccc(Br)c(C)c5)C(=O)O4)CC3)c2n1` [Example 31, (R)-3-(4-Bromo-3-methyl-phenyl)-5-[4-(6-methoxy-[1,5]naphthyridin-4-yl)-piperazin-1-ylmethyl]-oxazolidin-2-one] the value was at most 0.031 µg/mL.
